23 compounds from patent publication US12662451B2, “Chemical compounds and uses thereof” (GLAXOSMITHKLINE INTELLECTUAL PROPERTY (NO.4) LIMITED, priority 2023, dated 2026) can be followed below.

For experiment [1], the target named is T1, recombinant full-length WRN protein (1-1432) (Homo sapiens, UniProt Q14191).
T1 construct: recombinant full-length WRN protein (1-1432)
The experiment can be described thus: WRN unwinding activity, fluorogenic 384-well assay (Example A). In kind it is biochemical. The note with it: WRN unwinding activity, 4 hr; Table 2; read-out: 4 hr UNW pIC50 (converted). The method, boiled down: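 200 pM enzyme (2× stock) preincubated with compound 4 h at ambient temperature, then 200 μM ATP and 12 nM quenched TAMRA-labelled dsDNA (2× stocks) added for 60 min; EDTA-quenched. Buffer 25 mM Tris pH 8.0, 5 mM NaCl, 2 mM MgCl2. Fluorescence at 525/598 nm; pIC50 from four-parameter fit.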

Experiment [2] concerns SW48 human colorectal cancer cells (MSI-H cancer cells). The experiment can be described thus: SW48 cell viability, CellTiter-Glo, 120 hours (Example B). Conditions: Homo sapiens, SW48, 120 h, read-out: SW48 pCC50, SW48 cell viability, 120 hours incubation (converted); Table 2.

T1 sequence (Q14191 whole entry): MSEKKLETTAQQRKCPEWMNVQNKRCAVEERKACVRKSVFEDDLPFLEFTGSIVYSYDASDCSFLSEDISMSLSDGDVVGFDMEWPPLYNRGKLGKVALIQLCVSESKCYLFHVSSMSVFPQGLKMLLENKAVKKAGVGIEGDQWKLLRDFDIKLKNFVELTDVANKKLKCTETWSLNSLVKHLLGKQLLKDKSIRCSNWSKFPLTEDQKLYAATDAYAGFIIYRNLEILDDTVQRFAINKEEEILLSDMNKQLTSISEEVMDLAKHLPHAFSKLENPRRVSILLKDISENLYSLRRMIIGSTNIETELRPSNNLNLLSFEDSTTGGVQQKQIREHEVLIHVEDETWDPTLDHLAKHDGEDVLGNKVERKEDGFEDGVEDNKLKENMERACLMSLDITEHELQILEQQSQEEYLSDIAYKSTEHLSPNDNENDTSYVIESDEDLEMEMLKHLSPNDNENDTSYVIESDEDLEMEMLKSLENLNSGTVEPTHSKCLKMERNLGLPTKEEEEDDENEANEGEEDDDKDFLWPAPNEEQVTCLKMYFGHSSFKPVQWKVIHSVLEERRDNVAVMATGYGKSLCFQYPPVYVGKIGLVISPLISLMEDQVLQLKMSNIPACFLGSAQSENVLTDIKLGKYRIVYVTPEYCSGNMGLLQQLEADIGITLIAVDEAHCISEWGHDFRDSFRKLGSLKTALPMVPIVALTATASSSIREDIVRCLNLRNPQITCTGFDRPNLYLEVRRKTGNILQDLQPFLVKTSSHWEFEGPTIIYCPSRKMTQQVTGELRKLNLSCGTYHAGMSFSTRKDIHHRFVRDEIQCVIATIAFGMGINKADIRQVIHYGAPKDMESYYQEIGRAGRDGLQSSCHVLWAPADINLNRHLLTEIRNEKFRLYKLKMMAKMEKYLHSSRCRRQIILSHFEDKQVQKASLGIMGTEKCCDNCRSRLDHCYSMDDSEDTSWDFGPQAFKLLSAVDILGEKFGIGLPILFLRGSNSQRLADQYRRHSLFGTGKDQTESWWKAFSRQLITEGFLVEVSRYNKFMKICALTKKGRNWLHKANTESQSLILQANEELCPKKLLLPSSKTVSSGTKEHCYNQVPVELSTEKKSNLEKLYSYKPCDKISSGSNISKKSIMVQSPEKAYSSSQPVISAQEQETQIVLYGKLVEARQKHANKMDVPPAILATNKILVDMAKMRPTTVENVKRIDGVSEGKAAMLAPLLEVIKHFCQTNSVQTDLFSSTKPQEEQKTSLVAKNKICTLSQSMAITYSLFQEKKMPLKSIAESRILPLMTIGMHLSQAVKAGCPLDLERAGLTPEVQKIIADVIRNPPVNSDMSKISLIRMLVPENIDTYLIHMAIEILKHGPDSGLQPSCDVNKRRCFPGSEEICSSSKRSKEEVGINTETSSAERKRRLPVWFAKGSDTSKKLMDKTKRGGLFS

As for `O=C(O)[C@@H]1[C@@H](c2ccc(-c3ccoc3)cc2)CCC[C@H]1C(=O)Nc1ccc(C(F)(F)F)cc1F` [Example 10, (1R,2R,6S)-2-((2-fluoro-4-(trifluoromethyl)phenyl)carbamoyl)-6-(4-(furan-3-yl)phenyl) cyclohexane-1-carboxylic acid], in experiment [1], the IC50 was 0.1 µM. In addition, the CC50 in experiment [2] was 12.6 µM.

Take `O=C(O)[C@@H]1[C@@H](c2ccc(-c3ccccc3)cc2)CCC[C@H]1C(=O)Nc1ccc(C(F)(F)F)cc1F` [Example 11, (1R,2S,6R)-2-([1,1′-biphenyl]-4-yl)-6-((2-fluoro-4-(trifluoromethyl)phenyl)carbamoyl)cyclohexane-1-carboxylic acid]: the IC50 in experiment [1] is 0.158 µM. The CC50 in experiment [2] is 15.8 µM.

Regarding `O=C(O)[C@@H]1[C@@H](c2ccc(-c3cccc4c3COC4)cc2)CCC[C@H]1C(=O)Nc1ccc(C(F)(F)F)cc1F` [Example 15, (1R,2S,6R)-2-(4-(1,3-dihydroisobenzofuran-4-yl)phenyl)-6-((2-fluoro-4-(trifluoromethyl)phenyl)carbamoyl)cyclohexane-1-carboxylic acid], in experiment [1], the IC50 is 0.158 µM. Further, in experiment [2], the CC50 is 20 µM.

On to `O=C(O)[C@@H]1[C@@H](c2ccc(-c3ccnnc3)cc2)CCC[C@H]1C(=O)Nc1ccc(C(F)(F)F)cc1F` [Example 18, (1R,2R,6S)-2-((2-fluoro-4-(trifluoromethyl)phenyl)carbamoyl)-6-(4-(pyridazin-4-yl)phenyl)cyclohexane-1-carboxylic acid], for which, in experiment [1], the IC50 is 0.00501 µM. Moreover, in experiment [2], the CC50 is 12.6 µM.

`Nc1ccccc1-c1ccc([C@H]2CCC[C@@H](C(=O)Nc3ccc(C(F)(F)F)cc3F)[C@@H]2C(=O)O)cc1` [Example 24, (1R,2S,6R)-2-(2′-amino-[1,1′-biphenyl]-4-yl)-6-((2-fluoro-4-(trifluoromethyl)phenyl)carbamoyl)cyclohexane-1-carboxylic acid]: the IC50 in experiment [1] is 0.0794 µM. In experiment [2], the CC50 is 15.8 µM.

Regarding `O=C(O)[C@@H]1[C@@H](c2ccc(-c3ccc(F)nc3)cc2)CCC[C@H]1C(=O)Nc1ccc(C(F)(F)F)cc1F` [Example 25, (1R,2R,6S)-2-((2-fluoro-4-(trifluoromethyl)phenyl)carbamoyl)-6-(4-(6-fluoropyridin-3-yl)phenyl)cyclohexane-1-carboxylic acid], the IC50 in experiment [1] is 0.00158 µM. In experiment [2], the CC50 was 5.01 µM.

For the compound `O=C(O)[C@@H]1[C@@H](c2ccc(-c3cncc(F)c3)cc2)CCC[C@H]1C(=O)Nc1ccc(C(F)(F)F)cc1F` [Example 27, (1R,2R,6S)-2-((2-fluoro-4-(trifluoromethyl)phenyl)carbamoyl)-6-(4-(5-fluoropyridin-3-yl)phenyl)cyclohexane-1-carboxylic acid], in experiment [1], the IC50 was 0.0126 µM. For the same compound, in experiment [2], the CC50 was 3.98 µM.

`O=C(O)[C@@H]1[C@@H](c2ccc(-c3cccs3)cc2)CCC[C@H]1C(=O)Nc1ccc(C(F)(F)F)cc1F` [Example 31, (1R,2R,6S)-2-((2-fluoro-4-(trifluoromethyl)phenyl)carbamoyl)-6-(4-(thiophen-2-yl)phenyl)cyclohexane-1-carboxylic acid]: in experiment [1], the IC50 was 0.1 µM. In experiment [2], the CC50 is 10 µM.

For `N#Cc1cscc1-c1ccc([C@H]2CCC[C@@H](C(=O)Nc3ccc(C(F)(F)F)cc3F)[C@@H]2C(=O)O)cc1` [Example 32, (1R,2S,6R)-2-(4-(4-cyanothiophen-3-yl)phenyl)-6-((2-fluoro-4-(trifluoromethyl)phenyl)carbamoyl)cyclohe xane-1-carboxylic acid], the IC50 in experiment [1] is 0.0794 µM. Moreover, the CC50 in experiment [2] was 10 µM.

For `O=C(O)[C@@H]1[C@@H](c2ccc(-c3cccc4sccc34)cc2)CCC[C@H]1C(=O)Nc1ccc(C(F)(F)F)cc1F` [Example 35, (1R,2S,6R)-2-(4-(benzo[b]thiophen-4-yl)phenyl)-6-((2-fluoro-4-(trifluoromethyl)phenyl)carbamoyl) cyclohexane-1-carboxylic acid], the IC50 in experiment [1] is 2 µM. In addition, in experiment [2], the CC50 is 6.31 µM.

With `O=C(O)[C@@H]1[C@@H](c2ccc(-c3nsc4ccccc34)cc2)CCC[C@H]1C(=O)Nc1ccc(C(F)(F)F)cc1F` [Example 36, (1R,2S,6R)-2-(4-(benzo[d]isothiazol-3-yl)phenyl)-6-((2-fluoro-4-(trifluoromethyl)phenyl)carbamoyl)cyclohe xane-1-carboxylic acid], in experiment [1], the IC50 was 0.631 µM. Besides, the CC50 in experiment [2] is 5.01 µM.

For the compound `O=C(O)[C@@H]1[C@@H](c2ccc(-c3ccc(F)nn3)cc2)CCC[C@H]1C(=O)Nc1ccc(C(F)(F)F)cc1F` [Example 37], the IC50 in experiment [1] is 0.002 µM. For the same compound, the CC50 in experiment [2] is 2.51 µM.

In the case of `Cc1nnc(-c2ccc([C@H]3CCC[C@@H](C(=O)Nc4ccc(C(F)(F)F)cc4F)[C@@H]3C(=O)O)cc2)s1` [Example 41, (1R,2R,6S)-2-((2-fluoro-4-(trifluoromethyl)phenyl)carbamoyl)-6-(4-(5-methyl-1,3,4-thiadiazol-2-yl)phenyl)cyclohexane-1-carboxylic acid], in experiment [1], the IC50 was 0.00501 µM. Also, in experiment [2], the CC50 is 3.98 µM.

Consider `O=C(O)[C@@H]1[C@@H](c2ccc(-c3cnoc3)cc2)CCC[C@H]1C(=O)Nc1ccc(C(F)(F)F)cc1F` [Example 48, (1R,2R,6S)-2-((2-fluoro-4-(trifluoromethyl)phenyl)carbamoyl)-6-(4-(isoxazol-4-yl)phenyl)cyclohexane-1-carboxylic acid], for which the IC50 in experiment [1] was 0.0158 µM. Moreover, in experiment [2], the CC50 was 5.01 µM.

Regarding `Cc1oncc1-c1ccc([C@H]2CCC[C@@H](C(=O)Nc3ccc(C(F)(F)F)cc3F)[C@@H]2C(=O)O)cc1` [Example 53, (1R,2R,6S)-2-((2-fluoro-4-(trifluoromethyl)phenyl)carbamoyl)-6-(4-(5-methylisoxazol-4-yl)phenyl)cyclohexane-1-carboxylic acid], the IC50 in experiment [1] was 0.0158 µM. In addition, in experiment [2], the CC50 is 7.94 µM.

With `N#Cc1ncc(-c2ccc([C@H]3CCC[C@@H](C(=O)Nc4ccc(C(F)(F)F)cc4F)[C@@H]3C(=O)O)cc2)cn1` [Example 54, (1R,2S,6R)-2-(4-(2-cyanopyrimidin-5-yl)phenyl)-6-((2-fluoro-4-(trifluoromethyl)phenyl)carbamoyl)cyclohexane-1-carboxylic acid], the IC50 in experiment [1] was 0.00501 µM. Moreover, the CC50 in experiment [2] was 7.94 µM.

Consider `N#Cc1ccc(-c2ccc([C@H]3CCC[C@@H](C(=O)Nc4ccc(C(F)(F)F)cc4F)[C@@H]3C(=O)O)cc2)nn1` [Example 55, (1R,2S,6R)-2-(4-(6-cyanopyridazin-3-yl)phenyl)-6-((2-fluoro-4-(trifluoromethyl)phenyl)carbamoyl) cyclohexane-1-carboxylic acid], for which the IC50 in experiment [1] was 0.00251 µM. Also, the CC50 in experiment [2] was 10 µM.

As for `O=C(O)[C@@H]1[C@@H](c2ccc(C3=CCS(=O)(=O)C3)cc2)CCC[C@H]1C(=O)Nc1ccc(C(F)(F)F)cc1F` [Example 58, (1R,2S,6R)-2-(4-(1,1-dioxido-2,5-dihydrothiophen-3-yl)phenyl)-6-((2-fluoro-4-(trifluoromethyl)phenyl)carbamoyl) cyclohexane-1-carboxylic acid], the IC50 in experiment [1] was 0.0316 µM. Moreover, the CC50 in experiment [2] is 15.8 µM.

With `CN(c1ccc([C@H]2CCC[C@@H](C(=O)Nc3ccc(C(F)(F)F)cc3F)[C@@H]2C(=O)O)cc1)S(=O)(=O)c1ccc2occc2c1` [Example 93, (1R,2R,6S)-2-((2-fluoro-4-(trifluoromethyl)phenyl)carbamoyl)-6-(4-(N-methylbenzofuran-5-sulfonamido)phenyl)cyclohexane-1-carboxylic acid], in experiment [1], the IC50 is 0.00251 µM. In addition, the CC50 in experiment [2] is 2.51 µM.

Consider `CN(c1ccc([C@H]2CCC[C@@H](C(=O)Nc3ccc(C(F)(F)F)cc3F)[C@@H]2C(=O)O)cc1)S(=O)(=O)c1cccnc1` [Example 95, (1R,2R,6S)-2-((2-fluoro-4-(trifluoromethyl)phenyl)carbamoyl)-6-(4-(N-methylpyridine-3-sulfonamido)phenyl)cyclohexane-1-carboxylic acid], for which the IC50 in experiment [1] is 0.00251 µM. The CC50 in experiment [2] is 3.16 µM.

With `CN(c1ccc([C@H]2CCC[C@@H](C(=O)Nc3ccc(C(F)(F)F)cc3F)[C@@H]2C(=O)O)cc1)S(=O)(=O)c1ccc2oc(=O)n(C)c2c1` [Example 100, (1R,2S,6R)-2-(4-((N,3-dimethyl-2-oxo-2,3-dihydrobenzo[d]oxazole)-5-sulfonamido)phenyl)-6-((2-fluoro-4-(trifluoromethyl)phenyl)carbamoyl)cyclohexane-1-carboxylic acid], in experiment [1], the IC50 was 0.00501 µM. For the same compound, the CC50 in experiment [2] is 3.98 µM.

Consider `CN(c1ccc([C@H]2CCC[C@@H](C(=O)Nc3ccc(C(F)(F)F)cc3F)[C@@H]2C(=O)O)cc1)S(=O)(=O)c1ccc2nc(O)sc2c1` [Example 102, (1R,2R,6S)-2-((2-fluoro-4-(trifluoromethyl)phenyl)carbamoyl)-6-(4-((2-hydroxy-N-methylbenzo[d]thiazole)-6-sulfonamido)phenyl)cyclohexane-1-carboxylic acid], for which, in experiment [1], the IC50 is 0.00631 µM. Besides, the CC50 in experiment [2] was 10 µM.

`Cc1cc(C)c(S(=O)(=O)N(C)c2ccc([C@H]3CCC[C@@H](C(=O)Nc4ccc(C(F)(F)F)cc4F)[C@@H]3C(=O)O)cc2)c(C)c1` [Example 103, (1R,2R,6S)-2-((2-fluoro-4-(trifluoromethyl)phenyl)carbamoyl)-6-(4-((N,2,4,6-tetramethylphenyl)sulfonamido)phenyl)cyclohexane-1-carboxylic acid]: the IC50 in experiment [1] is 0.00158 µM. Further, the CC50 in experiment [2] was 12.6 µM.
